In article PMC3353318 (Bioorganic & Medicinal Chemistry, 2011):

Assays:
[1] = target: A/M2 V27A mutant (Influenza A virus, UniProt P0DOF5, V27A); format: cell-based, influenza A/Udorn/72
[2] = target: A/M2 S31N mutant (Influenza A virus, UniProt P0DOF5, S31N); format: cell-based, influenza A/Udorn/72

Substance | inhibition of V27A A/M2 channel activity (in words) [1] | inhibition of S31N A/M2 channel activity (in words) [2]
6,7,8,9,10,11-Hexahydro-9-methyl-5,7:9,11-dimethano-5H-benzocyclononen-7-amine hydrochloride [Compound 3] | Neither 3 nor 11 were able to inhibit | Neither 3 nor 11 were able to inhibit
N,N-Dimethyl-6,7,8,9,10,11-hexahydro-9-methyl-5,7:9,11-dimethano-5H-benzocyclononen-7-amine hydrochloride [Compound 11] | Neither 3 nor 11 were able to inhibit | Neither 3 nor 11 were able to inhibit
N-Benzyl-6,7,8,9,10,11-hexahydro-9-methyl-5,7:9,11-dimethano-5H-benzocyclononen-7-amine hydrochloride [Compound 6] | unable to inhibit | unable to inhibit
